Assay [1] has as its system CMK. The experiment in a line: cells. The settings on record: Homo sapiens, CMK, 72 h, read-out: CMK. Set-up: species or system AML cell lines (8); Secondary HTS, 10-point dose-response in triplicate, Cell Titer Glo viability, four-parameter fit EC50.
Assay [2] has as its system CHRF288-11. In words: Secondary dose-response HTS, Cell Titer Glo. The assay is classed as cell-based, human. The settings on record: Homo sapiens, HTS; secondary high-throughput screen; CHRF288-11; read-out: average effective concentration, CHRF288-11. A general note: Cellular ATP, detected with luciferase, serves as a proxy for viable cell number.
In assay [3] the test system is CMS. In words: Secondary dose-response HTS, Cell Titer Glo. The assay is classed as cell-based, human. The settings on record: Homo sapiens, HTS, read-out: average effective concentration, CMS.
Assay [4] has as its system M07e. The experiment in a line: Secondary dose-response HTS, Cell Titer Glo. The assay is classed as cell-based, human. The settings on record: Homo sapiens, M-07e; secondary high-throughput screen; M07e; read-out: average effective concentration, M07e.
The subject of assay [5] is U937. The experiment in a line: Secondary dose-response HTS, Cell Titer Glo. The assay is classed as cell-based, human. The settings on record: Homo sapiens, U-937; secondary high-throughput screen; U937; read-out: average effective concentration, U937.
Assay [6] relates to MOLM-13. In words: cells. The arrangement: species or system AML cell lines (8); Secondary HTS, 10-point dose-response in triplicate, Cell Titer Glo viability, four-parameter fit EC50. The note with it: Homo sapiens, MOLM-13, 72 h, read-out: MOLM-13.
Assay [7] deals with MV4-11. The experiment in a line: cells. Set-up: species or system AML cell lines (8); Secondary HTS, 10-point dose-response in triplicate, Cell Titer Glo viability, four-parameter fit EC50. The note with it: Homo sapiens, MV4-11, 72 h, read-out: MV4-11.
Assay [8] deals with ML2. The experiment in a line: Secondary dose-response HTS, Cell Titer Glo. It counts as cell-based, human. The note with it: Homo sapiens; secondary high-throughput screen; ML-2; read-out: average effective concentration, ML-2.
The subject of assay [9] is CMK. The experiment in a line: Secondary dose-response HTS, Cell Titer Glo. It counts as cell-based, human. The note with it: Homo sapiens, CMK, read-out: average effective concentration, CMK.
For assay [10], the system named is CHRF288-11. The experiment in a line: cells. The note with it: 72 h, read-out: CHRF288-11. Set-up: species or system AML cell lines (8); Secondary HTS, 10-point dose-response in triplicate, Cell Titer Glo viability, four-parameter fit EC50.
For assay [11], the system named is U937. The experiment in a line: cells. The arrangement: species or system AML cell lines (8); Secondary HTS, 10-point dose-response in triplicate, Cell Titer Glo viability, four-parameter fit EC50. The settings on record: Homo sapiens, U-937, 72 h, read-out: U937.
Assay [12] has as its system CHRF288-11. The arrangement: species or system AML cell lines (8); Primary HTS, single concentration about 10 uM, Cell Titer Glo viability; log10 luminescence, per cent inhibition relative to cycloheximide control. The settings on record: 72 h, relative to cycloheximide control, log10 luminescence; inhibitor.
Assay [13] has as its system U937. The arrangement: species or system AML cell lines (8); Primary HTS, single concentration about 10 uM, Cell Titer Glo viability; log10 luminescence, per cent inhibition relative to cycloheximide control. The note with it: 72 h, relative to cycloheximide control, log10 luminescence; inhibitor.
In assay [14] the test system is CMK. Set-up: species or system AML cell lines (8); Primary HTS, single concentration about 10 uM, Cell Titer Glo viability; log10 luminescence, per cent inhibition relative to cycloheximide control. The settings on record: 72 h, relative to cycloheximide control, log10 luminescence; inhibitor.
Assay [15] deals with CMS. Set-up: species or system AML cell lines (8); Primary HTS, single concentration about 10 uM, Cell Titer Glo viability; log10 luminescence, per cent inhibition relative to cycloheximide control. The settings on record: 72 h, relative to cycloheximide control, log10 luminescence; inhibitor.
Assay [16] deals with M07e. Set-up: species or system AML cell lines (8); Primary HTS, single concentration about 10 uM, Cell Titer Glo viability; log10 luminescence, per cent inhibition relative to cycloheximide control. The note with it: 72 h, relative to cycloheximide control, log10 luminescence; inhibitor.
Assay [17] relates to ML-2. Set-up: species or system AML cell lines (8); Primary HTS, single concentration about 10 uM, Cell Titer Glo viability; log10 luminescence, per cent inhibition relative to cycloheximide control. The settings on record: 72 h, relative to cycloheximide control, log10 luminescence; inhibitor.
Assay [18] concerns MV4-11. The arrangement: species or system AML cell lines (8); Primary HTS, single concentration about 10 uM, Cell Titer Glo viability; log10 luminescence, per cent inhibition relative to cycloheximide control. The note with it: 72 h, relative to cycloheximide control, log10 luminescence; inhibitor.
The test system of assay [19] is MOLM-13. Set-up: species or system AML cell lines (8); Primary HTS, single concentration about 10 uM, Cell Titer Glo viability; log10 luminescence, per cent inhibition relative to cycloheximide control. The settings on record: 72 h, relative to cycloheximide control, log10 luminescence; inhibitor.
Assay [20] relates to MOLM-13. The experiment in a line: Secondary dose-response HTS, Cell Titer Glo. It counts as cell-based, human. The note with it: Homo sapiens; secondary high-throughput screen; MOLM-13; read-out: average effective concentration, MOLM-13.
Assay [21] deals with MV4-11. The experiment in a line: Secondary dose-response HTS, Cell Titer Glo. It counts as cell-based, human. The note with it: Homo sapiens; secondary high-throughput screen; MV4-11; read-out: average effective concentration, MV4-11.
Setting [22] is: secondary high-throughput screen.
The mark [23] stands for this setting: secondary high-throughput screen, CMS.

pEC50: −log10 of the molar value. Like-named read-outs stand apart in the source and are kept apart here. Some results are limits rather than exact numbers.

As for `C=C1CC[C@@H]2[C@](C)(CO)[C@H](O)CC[C@@]2(C)[C@@H]1C/C=C1/C(=O)OC[C@H]1O` [ANDROGRAPHOLIDE], the pEC50 in assay [1] is less than 5.00; in assay [2], 5.07; in assay [3] it was 5.24; in assay [4] it was 5.00; in assay [5], 5.77; in assay [6], less than 5.00. Besides, the pEC50 in [7] is less than 5.00; in [8], 5.42.

On to `O=C(Nc1c[nH]nc1-c1nc2ccc(CN3CCOCC3)cc2[nH]1)NC1CC1` [AT9283], for which the pEC50 in assay [9] (setting [22]) was 6.72; in [10] it was less than 5.00; in assay [3] (setting [23]), 6.72; in assay [4], 7.05; in assay [5] it was 5.21; in assay [6] it was less than 5.00. For the same compound, the pEC50 in assay [7] was less than 5.00; in assay [8], 5.18.

Take `Nc1cc(F)ccc1NC(=O)c1ccc(CNC(=O)/C=C/c2cccnc2)cc1` [CHIDAMIDE]: the pEC50 was 6.60 in assay [9]; less than 5.00 in assay [10]; 5.00 in assay [3]; 5.82 in [4]; less than 5.00 in [6]; less than 5.00 in assay [7]. Moreover, the figures for the pEC50 in [11] and in assay [8] were less than 5.00 and 5.06, respectively.

Compound `O=C(/C=C/c1ccc(CN(CCO)CCc2c[nH]c3ccccc23)cc1)NO` [DACINOSTAT] came in with a CHRF288-11 %inh in assay [12] of 161.9%. For the same compound, the pEC50 in [2] is 9.00; in assay [9] (setting [22]), 9.00; in assay [3] (setting [23]), 9.00; in assay [4] it was 9.00; in assay [5], 9.00; in [6], less than 5.00. Moreover, the results for the pEC50 in assay [7] and in assay [8] were less than 5.00 and 9.00, respectively. Also, the U937 %inh in assay [13] stood at 87.23%. This compound also gave a CMK %inh in assay [14] of 120.3%. Further, the CMS %inh in assay [15] came to 111%. The same compound displayed an M07e %inh in assay [16] of 149.6%. In assay [17], the ML-2 %inh is listed as 65.79%. Also, in assay [18], the MV4-11 %inh came out at 78.77%. The same compound yielded an MOLM-13 %inh in assay [19] of 102.9%.

In the case of `COc1cccc2c1C(=O)c1c(O)c3c(c(O)c1C2=O)C[C@@](O)(C(=O)CO)C[C@@H]3O[C@H]1C[C@H](N)[C@H](O)[C@H](C)O1` [DOXORUBICIN], the pEC50 in assay [1] was less than 5.00; in assay [2], 6.89; in assay [10], 6.87; in [3] (setting [23]), 6.13; in assay [4], 6.64; in assay [5] it was 6.85. For the same compound, the pEC50 in assay [20] is 7.44; in assay [21] it was 7.29; in assay [8], 6.36.

For the compound `CCOc1ccccc1-n1c(C(C)N2CCN(C(=O)COc3ccc(Cl)cc3)CC2)nc2ccccc2c1=O` (stereo not drawn) [ERASTIN], the pEC50 is less than 5.00 in assay [1]; 6.72 in [2]; 5.02 in assay [3] (setting [23]); 5.12 in assay [4]; less than 5.00 in [6]; less than 5.00 in assay [7]. Besides, the pEC50 in assay [11] was less than 5.00; in assay [8], 6.27.

For the compound `COc1cc([C@@H]2c3cc4c(cc3[C@@H](O[C@@H]3O[C@@H]5CO[C@@H](C)O[C@H]5[C@H](O)[C@H]3O)[C@H]3COC(=O)[C@H]23)OCO4)cc(OC)c1O` [ETOPOSIDE], the pEC50 was less than 5.00 in [1]; 5.44 in [2]; less than 5.00 in [3] (setting [23]); 5.77 in assay [4]; 5.37 in assay [5]; 5.68 in [20]. For the same compound, the pEC50 was 6.17 in [21] and 6.15 in assay [8].

As for `Cc1cc(Nc2cc(CN3CCOCC3)c3nc(C)c(Cc4ccc(Cl)cc4F)n3n2)n[nH]1` [GANDOTINIB], the pEC50 is less than 5.00 in [1]; 7.16 in assay [2]; 6.44 in [3]; 5.52 in assay [4]; 6.03 in assay [5]; less than 5.00 in assay [6]. Also, the pEC50 is less than 5.00 in assay [7] and 5.03 in [8].

Take `Nc1ccccc1NC(=O)c1ccc(CNc2nccc(-c3cccnc3)n2)cc1` [MOCETINOSTAT]: the pEC50 is 6.77 in assay [2]; 7.41 in assay [9] (setting [22]); 6.92 in assay [3] (setting [23]); 6.85 in [4]; 5.96 in assay [5]; less than 5.00 in assay [6]. For the same compound, the pEC50 in assay [7] was less than 5.00; in [8] it was 6.39.

Consider `C=C1C(=O)O[C@H]2[C@H]1CC/C(C)=C/CC[C@@]1(C)O[C@@H]21` [PARTHENOLIDE], for which the pEC50 in [2] is 5.80; in [9], 5.68; in assay [3], 5.92; in assay [4] it was 5.00; in assay [5] it was 5.68; in assay [6] it was less than 5.00. For the same compound, the pEC50 in [7] was less than 5.00; in [8] it was 6.04.

In the case of `CCCCc1nc2cc(/C=C/C(=O)NO)ccc2n1CCN(CC)CC` [PRACINOSTAT], the pEC50 is 6.60 in [2]; 7.15 in assay [9]; 6.85 in [3]; 6.89 in assay [4]; 6.66 in assay [5]; less than 5.00 in [6]. For the same compound, the pEC50 is less than 5.00 in assay [7] and 6.48 in assay [8].

With `CN1CCC(CNc2ccc3ncc(-c4cccc(OC(F)(F)F)c4)n3n2)CC1` [SGI-1776], the pEC50 in [1] was less than 5.00; in [2], less than 5.00; in assay [3], less than 5.00; in assay [4], less than 5.00; in assay [5], 5.00; in assay [20], 5.80. The pEC50 in [21] was 6.00; in [8] it was less than 5.00.

`COc1cc(C)c2c(Oc3cccc(C(F)(F)F)c3)c(OC)cc(NC(C)CCCN)c2n1` (stereo not drawn) [TAFENOQUINE] gave a CHRF288-11 %inh in assay [12] of 134.8%. The pEC50 in assay [1], in assay [2], in [3], in assay [4], in assay [5] and in [6] was less than 5.00 in each case. The pEC50 in assay [7] and in [8] was less than 5.00 in each case. This compound also showed a U937 %inh in assay [13] of 46.41%. Moreover, in assay [14], the CMK %inh was 107.9%. This compound registered a CMS %inh in assay [15] of 39.64%. In [16], the M07e %inh came to 38.9%. Further, the ML-2 %inh in assay [17] stood at 62.38%. The compound further registered an MV4-11 %inh in assay [18] of 34.4%. The compound also came in with an MOLM-13 %inh in assay [19] of 98.6%.

For `O=C1NC(=O)[C@@H](c2cn3c4c(cccc24)CCC3)[C@@H]1c1c[nH]c2ccccc12` [TIVANTINIB], the pEC50 in assay [2] was 5.44; in assay [9] (setting [22]), 7.12; in assay [3] (setting [23]), 5.82; in [4] it was 6.11; in assay [5], 7.21; in assay [6] it was less than 5.00. The figures for the pEC50 in assay [7] and in [8] were less than 5.00 and 7.26, respectively.

The values above are taken from paper PMC6522510 (Nature Communications, 2019).
